According to patent publication US10189835B2, “Derivatives and methods of treating hepatitis B infections” (Novira Therapeutics, Inc., priority 2014, dated 2019):

system: HBV replication in HepG2.2.15 cells; assay: HBV replication inhibition assay (BDNA assay); type: cell-based; conditions: 6 days of treatment, encapsidated HBV DNA in supernatant by branched DNA QuantiGene assay, listed as 828 E1
Text: HBV replication inhibition by the compounds of this invention could be determined in cells infected or transfected with HBV, or cells with stably integrated HBV, such as HepG2.2.15 cells (Sells et al. 1987). In this example, HepG2.2.15 cells were maintained in cell culture medium containing 10% fetal bovine serum (FBS), Geneticin, L-glutamine, penicillin and streptomycin. HepG2.2.15 cells could be seeded in 96-well plates at a density of 40,000 cells/well and be treated with serially diluted compounds at a final DMSO concentration of 0.5% either alone or in combination by adding drugs in a checker box format. Cells were incubated with compounds for three days, after which medium was removed and fresh medium containing compounds was added to cells and incubated for another three days. At day 6, supernatant was removed and treated with DNase at 37° C. for 60 minutes, followed by enzyme inactivation at 75° C. for 15 minutes. Encapsidated HBV DNA was released from the virions and covalently linked HBV polymerase by incubating in lysis buffer (Affymetrix QS0010) containing […] proteinase K at 50° C. for 40 minutes. HBV DNA was denatured by addition of 0.2 M NaOH and detected using a branched DNA (BDNA) QuantiGene assay kit according to manufacturer recommendation (Affymetrix). HBV DNA levels could also be quantified using qPCR, based on amplification of encapsidated HBV DNA extraction with QuickExtraction Solution (Epicentre Biotechnologies) and amplification of HBV DNA using HBV specific PCR probes that can hybridize to HBV DNA and a fluorescently labeled probe for quantitation. In addition, cell viability of HepG2.2.15 cells incubated with test compounds alone or in combination was determined by using CellTitre-Glo reagent according to the manufacturer protocol (Promega). The mean background signal from wells containing only culture medium was subtracted from all other samples, and percent inhibition at each compound concentration was calculated by normalizing to signals from HepG2.2.15 cells treated with 0.5% DMSO using equation E1. % inhibition=(DMSOave−Xi)/DMSOave×100% E1: […]
where DMSOave is the mean signal calculated from the wells that were treated with DMSO control (0% inhibition control) and Xi is the signal measured from the individual wells. EC50 values, effective concentrations that achieved 50% inhibitory effect, were determined by non-linear fitting using Graphpad Prism software (San Diego, Calif.) and equation E2 Y=Ymin+(Ymax−Ymin)/(1+10(LogEC50-X)×HillSlope) E2: […]
where Y represents percent inhibition values and X represents the logarithm of compound concentrations.
Selected compounds of the invention were assayed in the HBV replication assay (BDNA assay), as described above and a representative group of these active compounds is shown in Table 3. […] In Table 3, “A” represents 0.01<EC50<0.10; “B” represents 0.10<EC50<0.50; and “C” represents 0.50<EC50<1.0.

| SMILES | EC50 |
| --- | --- |
| CON(C)C(=O)c1n[nH]c2c1CN(C(=O)Nc1cccc(Cl)c1)C(C)C2 (stereo not shown) [Compound 828 E1, N5-(3-chlorophenyl)-N3-methoxy-N3,6-dimethyl-1,4,6,7-tetrahydropyrazolo [4,3-c]pyridine-3,5-dicarboxamide] | 10 to 100 nM |

same assay, conditions: 6 days of treatment, encapsidated HBV DNA in supernatant by branched DNA QuantiGene assay, listed as 828 E2

| SMILES | EC50 |
| --- | --- |
| CON(C)C(=O)c1n[nH]c2c1CN(C(=O)Nc1cccc(Cl)c1)C(C)C2 (stereo not shown) [Compound 828 E2, N5-(3-chlorophenyl)-N3-methoxy-N3,6-dimethyl-1,4,6,7-tetrahydropyrazolo [4,3-c]pyridine-3,5-dicarboxamide] | 100 to 500 nM |

same assay, conditions: Hepatitis B virus, HepG2.2.15, 144 h, 6 days of treatment, encapsidated HBV DNA in supernatant by branched DNA QuantiGene assay

| SMILES | EC50 |
| --- | --- |
| CN(C)N(C)C(=O)c1n[nH]c2c1CN(C(=O)Nc1cccc(Cl)c1)CC2 [Compound 937] | 10 to 100 nM |
| CC(C)CON(C)C(=O)c1n[nH]c2c1CN(C(=O)Nc1cccc(Cl)c1)CC2 [Compound 798] | 100 to 500 nM |
| CCC(=O)c1n[nH]c2c1CN(C(=O)Nc1cccc(Cl)c1)CC2 [Compound 695, N-(3-chlorophenyl)-3-propanoyl-1,4,6,7-tetrahydropyrazolo [4,3-c]pyridine-5-carboxamide] | 100 to 500 nM |
| CON(C(=O)c1n[nH]c2c1CN(C(=O)Nc1cccc(Cl)c1)CC2)C(C)C [Compound 595, N5-(3-chlorophenyl)-N3-isopropyl-N3-methoxy-1,4,6,7-tetrahydropyrazolo [4,3-c]pyridine-3,5-dicarboxamide] | 100 to 500 nM |
| CN(O)C(=O)c1n[nH]c2c1CN(C(=O)Nc1cccc(Cl)c1)CC2 [Compound 587, N5-(3-chlorophenyl)-N3-hydroxy-N3-methyl-6,7-dihydro-1H-pyrazolo[4,3-c]pyridine-3,5(4H)-dicarboxamide] | 500 to 1000 nM |
| COCCON(C)C(=O)c1n[nH]c2c1CN(C(=O)Nc1cccc(Cl)c1)CC2 [Compound 800] | 100 to 500 nM |
| CC(C)ON(C)C(=O)c1n[nH]c2c1CN(C(=O)Nc1cccc(Cl)c1)CC2 [Compound 600, N5-(3-chlorophenyl)-N3-isopropoxy-N3-methyl-1,4,6,7-tetrahydropyrazolo[4,3-c]pyridine-3,5-dicarboxamide] | 10 to 100 nM |
| CN(OC1CCOC1)C(=O)c1n[nH]c2c1CN(C(=O)Nc1cccc(Cl)c1)CC2 (stereo not shown) [Compound 910, N5-(3-chlorophenyl)-N3-methyl-N3-tetrahydrofuran-3-yloxy-1,4,6,7-tetrahydropyrazolo[4,3-c]pyridine-3,5-dicarboxamide] | 100 to 500 nM |
| O=C(Nc1cccc(Cl)c1)N1CCc2[nH]nc(C(=O)N3CC(F)CO3)c2C1 (stereo not shown) [Compound 698, N-(3-chlorophenyl)-3-(4-fluoroisoxazolidine-2-carbonyl)-1,4,6,7-tetrahydropyrazolo[4,3-c]pyridine-5-carboxamide] | 10 to 100 nM |
| CN(OCCO)C(=O)c1n[nH]c2c1CN(C(=O)Nc1cccc(Cl)c1)CC2 [Compound 796] | 100 to 500 nM |
| O=C(Nc1cccc(Cl)c1)N1CCc2[nH]nc(C(=O)N3CCCO3)c2C1 [Compound 699, N-(3-chlorophenyl)-3-(isoxazolidine-2-carbonyl)-1,4,6,7-tetrahydropyrazolo[4,3-c]pyridine-5-carboxamide] | 100 to 500 nM |
| CCON(C)C(=O)c1n[nH]c2c1CN(C(=O)Nc1cccc(Cl)c1)CC2 [Compound 599] | 10 to 100 nM |
| CN1CC(ON(C)C(=O)c2n[nH]c3c2CN(C(=O)Nc2cccc(Cl)c2)CC3)C1 [Compound 912, N5-(3-chlorophenyl)-N3-methyl-N3-(1-methylazetidin-3-yl)oxy-1,4,6,7-tetrahydropyrazolo[4,3-c]pyridine-3,5-dicarboxamide] | 100 to 500 nM |
| CN(OCC1CC1)C(=O)c1n[nH]c2c1CN(C(=O)Nc1cccc(Cl)c1)CC2 [Compound 803] | 100 to 500 nM |
| CON(C)C(=O)c1n[nH]c2c1CN(C(=O)Nc1cccc(Cl)c1)CC2 [Compound 434, N5-(3-chlorophenyl)-N3-methoxy-N3-methyl-1,4,6,7-tetrahydropyrazolo [4,3-c]pyridine-3,5-dicarboxamide] | 10 to 100 nM |
| O=C(Nc1cccc(Cl)c1)N1CCc2[nH]nc(C(=O)N3CC(O)CO3)c2C1 (stereo not shown) [Compound 697, N-(3-chlorophenyl)-3-(4-hydroxyisoxazolidine-2-carbonyl)-1,4,6,7-tetrahydropyrazolo [4,3-c]pyridine-5-carboxamide] | 500 to 1000 nM |
| CN(OC1CCC1)C(=O)c1n[nH]c2c1CN(C(=O)Nc1cccc(Cl)c1)CC2 [Compound 805] | 10 to 100 nM |
| CCN(OC)C(=O)c1n[nH]c2c1CN(C(=O)Nc1cccc(Cl)c1)CC2 [Compound 594, N5-(3-chlorophenyl)-N3-ethyl-N3-methoxy-1,4,6,7-tetrahydropyrazolo [4,3-c]pyridine-3,5-dicarboxamide] | 10 to 100 nM |
| CCCON(C)C(=O)c1n[nH]c2c1CN(C(=O)Nc1cccc(Cl)c1)CC2 [Compound 795] | 100 to 500 nM |
| CCCC(=O)c1n[nH]c2c1CN(C(=O)Nc1cccc(Cl)c1)CC2 [Compound 561] | 10 to 100 nM |
